Results as given in ChEMBL document CHEMBL4418493, “N-hydroxyformamide compounds and compositions comprising them for use as BMP1, TLL1 and/or TLL2 inhibitors” (2018).

Tests used:
[1] = Drug metabolism in heparinized pooled human plasma at pH 7.5 assessed as formation of (S)-2-(2-(carboxymethoxy)-4-(5-((((R)-2-((R)-1-(N-hydroxyformamido)propyl)heptanamido)methyl)carbamoyl)furan-2-yl)benzamido)succinic acid at 100 to 2000 ng/ml incubated up to 4 or 24 hrs by LC-MS/MS analysis; type: ADME, cell-free; conditions: pH 7.5, 24 h
[2] = Reduction in PICP levels in human cardiac fibroblasts incubated for 24 to 48 hrs by ELISA; type: functional
[3] = Drug metabolism in heparinized pooled human plasma at pH 7.5 assessed as formation of (3-ethoxy-5-(5-((((R)-2-((R)-1-(N-hydroxyformamido)propyl)heptanamido)methyl)carbamoyl) furan-2-yl)phenyl)phosphonic acid at 100 to 2000 ng/ml incubated up to 4 or 24 hrs by LC-MS/MS analysis; type: ADME, cell-free; conditions: pH 7.5, 24 h

| Structure (SMILES) | Drug metabolism [1] | Drug metabolism [3] | IC50 [2] [µM] |
| --- | --- | --- | --- |
| CCCCC[C@@H](C(=O)NCNC(=O)c1ccc(-c2cc(OCC)cc(P(=O)(O)O)c2)o1)[C@@H](CC)N(C=O)OC(=O)NC(C)(C)c1ccccc1 | – | Metabolite_Detected | – |
| CCCCC[C@@H](C(=O)NCNC(=O)c1ccc(-c2cc(OCC)cc(P(=O)(O)O)c2)o1)[C@@H](CC)N(C=O)OC(=O)c1ccc(CN2CCOCC2)cc1C | – | Metabolite_Detected | < 3.98 |
| CCCCC[C@@H](C(=O)NCNC(=O)c1ccc(-c2cc(OCC)cc(P(=O)(O)OCOC(=O)C(C)C)c2)o1)[C@@H](CC)N(O)C=O | – | Metabolite_Detected | – |
| CCCCC[C@@H](C(=O)NCNC(=O)c1ccc(-c2cc(OCC)cc(P(=O)(O)O)c2)o1)[C@@H](CC)N(C=O)OC(=O)c1ccc2c(c1)OCCN2C | – | Metabolite_Detected | < 3.98 |
| CCCCC[C@@H](C(=O)NCNC(=O)c1ccc(-c2cc(OCC)cc(P(=O)(O)O)c2)o1)[C@@H](CC)N(C=O)OC(=O)c1c(C)cccc1F | – | Metabolite_Detected | – |
| CCCCC[C@@H](C(=O)NCNC(=O)c1ccc(-c2cc(OCC)cc(P(=O)(O)O)c2)o1)[C@@H](CC)N(C=O)OC(=O)c1ccc(N2CCOCC2)cc1 | – | Metabolite_Detected | – |
| CCCCC[C@@H](C(=O)NCNC(=O)c1ccc(-c2cc(OCC)cc(P(=O)(O)O)c2)o1)[C@@H](CC)N(C=O)OC(=O)c1ccc(CN2CCOCC2)cc1 | – | Metabolite_Detected | < 3.98 |
| CCCCC[C@@H](C(=O)NCNC(=O)c1ccc(-c2cc(OCC)cc(P(=O)(O)O)c2)o1)[C@@H](CC)N(C=O)OC(=O)C(CC)CC | – | Metabolite_Detected | < 3.98 |
| CCCCC[C@@H](C(=O)NCNC(=O)c1ccc(-c2cc(OCC)cc(P(=O)(O)O)c2)o1)[C@@H](CC)N(C=O)OC(=O)c1ccccc1OC(=O)N(C)C | – | Metabolite_Detected | – |
| CCCCC[C@@H](C(=O)NCNC(=O)c1ccc(-c2cc(OCC)cc(P(=O)(O)O)c2)o1)[C@@H](CC)N(C=O)OC(=O)c1ccccc1O | – | Metabolite_Detected | < 3.98 |
| CCCCC[C@@H](C(=O)NCNC(=O)c1ccc(-c2cc(OCC)cc(P(=O)(O)O)c2)o1)[C@@H](CC)N(C=O)OC(=O)c1ccc2c(c1)N(C)CCO2.N.N | – | Metabolite_Detected | < 3.98 |
| CCCCC[C@@H](C(=O)NCNC(=O)c1ccc(-c2cc(OCC)cc(P(=O)(O)O)c2)o1)[C@@H](CC)N(C=O)OC(=O)c1ccc(N2CCCC2=O)cc1.N.N | – | Metabolite_Detected | < 3.98 |
| CCCCC[C@@H](C(=O)NCNC(=O)c1ccc(-c2cc(OCC)cc(P(=O)(O)O)c2)o1)[C@@H](CC)N(C=O)OC(=O)c1ccc(OC)cc1C.N.N | – | Metabolite_Detected | < 3.98 |
| CCCCC[C@@H](C(=O)NCNC(=O)c1ccc(-c2cc(OCC)cc(P(=O)(O)O)c2)o1)[C@@H](CC)N(C=O)OC(=O)NC(C)(C)C | – | Metabolite_Detected | < 3.98 |
| CCCCCCCCC(=O)ON(C=O)[C@H](CC)[C@@H](CCCCC)C(=O)NCNC(=O)c1ccc(-c2cc(OCC)cc(P(=O)(O)O)c2)o1 | – | Metabolite_Detected | – |
| CCCCC[C@@H](C(=O)NCNC(=O)c1ccc(-c2cc(OCC)cc(P(=O)(O)O)c2)o1)[C@@H](CC)N(C=O)OC(=O)c1ccc(F)cc1C(C)C | – | Metabolite_Detected | – |
| CCCCC[C@@H](C(=O)NCNC(=O)c1ccc(-c2cc(OCC)cc(P(=O)(O)OCc3oc(=O)oc3C)c2)o1)[C@@H](CC)N(O)C=O | – | Metabolite_Detected | – |
| CCCCC[C@@H](C(=O)NCNC(=O)c1ccc(-c2cc(OCC)cc(P(=O)(O)O)c2)o1)[C@@H](CC)N(C=O)OC(=O)c1ccc(-n2cccc2)cc1.N.N | – | Metabolite_Detected | – |
| CCCCC[C@@H](C(=O)NCNC(=O)c1ccc(-c2cc(OCC)cc(P(=O)(O)O)c2)o1)[C@@H](CC)N(C=O)OC(=O)c1ccc(N2CCCC2)c(F)c1.N.N | – | Metabolite_Detected | < 3.98 |
| CCCCC[C@@H](C(=O)NCNC(=O)c1ccc(-c2cc(OCC)cc(P(=O)(OCOC(=O)C(C)C)OCOC(=O)C(C)C)c2)o1)[C@@H](CC)N(O)C=O | – | Metabolite_Detected | – |
| CCCCC[C@@H](C(=O)NCNC(=O)c1ccc(-c2cc(OCC)cc(P(=O)(O)O)c2)o1)[C@@H](CC)N(C=O)OC(=O)c1cccc(N2CCCC2)c1.N.N | – | Metabolite_Detected | – |
| CCCCC[C@@H](C(=O)NCNC(=O)c1ccc(-c2cc(OCC)cc(P(=O)(O)O)c2)o1)[C@@H](CC)N(C=O)OC(=O)NC(C)C | – | Metabolite_Detected | < 3.98 |
| CCCCC[C@@H](C(=O)NCNC(=O)c1ccc(-c2cc(OCC)cc(P(=O)(O)O)c2)o1)[C@@H](CC)N(C=O)OC(=O)c1c(C)cccc1OCOP(=O)(O)O.N.N.N.N | – | Metabolite_Detected | < 3.98 |
| CCCCC[C@@H](C(=O)NCNC(=O)c1ccc(-c2cc(OCC)cc(P(=O)(O)O)c2)o1)[C@@H](CC)N(C=O)OC(=O)c1ccc(N2CCCC2)cc1.N.N | – | Metabolite_Detected | < 3.98 |

Continued, in another order:

| Drug metabolism [1] | Drug metabolism [3] | Structure (SMILES) | IC50 [2] [µM] |
| --- | --- | --- | --- |
| Metabolite_Detected | – | CCCCC[C@@H](C(=O)NCNC(=O)c1ccc(-c2ccc(C(=O)N[C@@H](CC(=O)O)C(=O)O)c(OCC(=O)O)c2)o1)[C@@H](CC)N(C=O)OC(=O)N(C)C(=O)OC(C)(C)C | < 3.98 |
| Metabolite_Detected | – | CCCCC[C@@H](C(=O)NCNC(=O)c1ccc(-c2ccc(C(=O)N[C@@H](CC(=O)O)C(=O)O)c(OCC(=O)O)c2)o1)[C@@H](CC)N(C=O)OC(=O)C(CCC)CCC | < 3.98 |
| Metabolite_Detected | – | CCCCC[C@@H](C(=O)NCNC(=O)c1ccc(-c2ccc(C(=O)N[C@@H](CC(=O)O)C(=O)O)c(OCC(=O)O)c2)o1)[C@@H](CC)N(C=O)OC(=O)c1ccc(OC)cc1C(C)C | < 3.98 |
| Metabolite_Detected | – | CCCCC[C@@H](C(=O)NCNC(=O)c1ccc(-c2ccc(C(=O)N[C@@H](CC(=O)O)C(=O)O)c(OCC(=O)O)c2)o1)[C@@H](CC)N(C=O)OC(=O)c1ccc(OC)c(OC)c1 | < 3.98 |
| Metabolite_Detected | – | CCCCC[C@@H](C(=O)NCNC(=O)c1ccc(-c2ccc(C(=O)N[C@@H](CC(=O)O)C(=O)O)c(OCC(=O)O)c2)o1)[C@@H](CC)N(C=O)OC(=O)c1ccncc1C.N.N.N | < 3.98 |
| – | Metabolite_Detected | CCCCC[C@@H](C(=O)NCNC(=O)c1ccc(-c2cc(OCC)cc(P(=O)(O)O)c2)o1)[C@@H](CC)N(C=O)OC(=O)c1ccc(OC)cc1C(C)C | < 3.98 |
| Metabolite_Detected | – | CCCCC[C@@H](C(=O)NCNC(=O)c1ccc(-c2ccc(C(=O)N[C@@H](CC(=O)O)C(=O)O)c(OCC(=O)O)c2)o1)[C@@H](CC)N(C=O)OC(=O)c1ccc(OC)cc1OC.N.N.N | < 3.98 |
| Metabolite_Detected | – | CCCCC[C@@H](C(=O)NCNC(=O)c1ccc(-c2ccc(C(=O)N[C@@H](CC(=O)O)C(=O)O)c(OCC(=O)O)c2)o1)[C@@H](CC)N(C=O)OC(=O)c1c(C)cccc1OC | < 3.98 |
| Metabolite_Detected | – | CCCCC[C@@H](C(=O)NCNC(=O)c1ccc(-c2ccc(C(=O)N[C@@H](CC(=O)O)C(=O)O)c(OCC(=O)O)c2)o1)[C@@H](CC)N(C=O)OC(=O)c1ccc(F)cc1C(C)C | < 3.98 |
| Metabolite_Detected | – | CCCCC[C@@H](C(=O)NCNC(=O)c1ccc(-c2ccc(C(=O)N[C@@H](CC(=O)O)C(=O)O)c(OCC(=O)O)c2)o1)[C@@H](CC)N(C=O)OC(=O)c1ccc(CN2CCOCC2)cc1C | < 3.98 |
